Measured values reported in patent publication US7524847B2, “Fused 1,3-dihydro-imidazole ring compounds” (Eisai R&D Management Co., Ltd., priority 2002, dated 2009).
Structures can show the parent of a compound that is named as a salt.

Legend:
[1] = target: T1, DPP-IV obtained from pig kidney (Sus scrofa, UniProt P22411); test: Measurement of DPPIV-inhibiting activity (in vitro experiment); type: biochemical; details: DPP-IV from pig kidney 10 mU/mL, substrate Gly-Pro-p-nitroanilide 0.33 mM, 20 min preincubation, 20 min reaction, absorbance 405 nm
T1 construct: DPP-IV obtained from pig kidney; from tissue; host or cells: pig kidney
T1 sequence (P22411 whole entry): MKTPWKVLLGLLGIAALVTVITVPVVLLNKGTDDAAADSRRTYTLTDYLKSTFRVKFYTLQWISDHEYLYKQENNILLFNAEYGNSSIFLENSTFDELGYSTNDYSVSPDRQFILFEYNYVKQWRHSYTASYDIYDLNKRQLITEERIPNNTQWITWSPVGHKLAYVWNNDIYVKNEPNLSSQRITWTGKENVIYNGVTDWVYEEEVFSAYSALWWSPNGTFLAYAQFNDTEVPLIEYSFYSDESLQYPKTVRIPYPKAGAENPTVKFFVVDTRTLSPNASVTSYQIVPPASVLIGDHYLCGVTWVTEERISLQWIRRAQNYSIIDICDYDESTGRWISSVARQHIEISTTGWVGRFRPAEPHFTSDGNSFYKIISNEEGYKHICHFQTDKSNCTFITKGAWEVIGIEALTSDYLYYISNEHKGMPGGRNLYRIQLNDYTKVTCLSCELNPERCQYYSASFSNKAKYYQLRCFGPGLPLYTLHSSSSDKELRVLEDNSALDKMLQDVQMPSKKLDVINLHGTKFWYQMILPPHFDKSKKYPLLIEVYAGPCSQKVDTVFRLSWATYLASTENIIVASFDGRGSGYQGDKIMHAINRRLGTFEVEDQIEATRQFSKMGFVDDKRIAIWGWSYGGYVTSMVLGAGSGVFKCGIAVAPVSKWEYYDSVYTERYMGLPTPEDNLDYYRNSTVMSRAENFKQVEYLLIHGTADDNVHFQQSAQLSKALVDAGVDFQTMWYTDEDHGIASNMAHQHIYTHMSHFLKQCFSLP
Procedure: DPP-IV obtained from pig kidney was dissolved in a reaction buffer (50 mM Tris-HCl pH7.4, 0.1% BSA) at 10 mU/mL, and 110 μL of this was used. 15 μL of the drug obtained from the aforementioned Examples was added, and this was incubated at room temperature for 20 minutes, and then 25 μL of a 2 mM solution of Gly-Pro-p-nitroanilide (final concentration 0.33 mM) was added to start the enzymatic reaction. The reaction time was 20 minutes, and 1 N phosphoric acid solution (25 μL) was added to stop the reaction.

[2] = tested on: normal mice (male C57BL/6N); test: Effects on glucose tolerance in normal mice (in vivo experiment); details: 1 mg/kg oral, 30 min before oral glucose 2 g/kg; blood glucose AUC0-120; 0.5% MC group = 100%, NVP DPP728 (10 mg/kg) group = 0%; lower = better
Procedure: Animals: Male C57BL/6N mice (purchased from Japan Charles River) The test compounds were suspended in a 0.5% methylcellulose (MC) solution at the doses indicated below in Table 2. These test compounds and the NVP DPP728 (U.S. Pat. No. 6,011,155) suspension, or the 0.5% MC solution (the solvent control group), were administered orally at a dose of 10 mL/kg. 30 minutes later, a glucose solution was orally administered at a dose of 10 mL/kg. Glucose was orally administered at a dose of 2 g/kg. The tail vain of unanesthetized mice was cut with a razor blade to cause a small amount of bleeding immediately before administering the test substances or NVP DPP728, and immediately before, as well as 30, 60, and 120 minutes after, administration of the glucose solution. 10 μL of blood was collected, and this was mixed immediately with 0.6 M perchloric acid (140 μL). Glucose present in the supernatant obtained by centrifugation (1500 g, 10 minutes, 4° C., refrigerated centrifuge GS-6KR, Beckman) was measured using Glucose CII Test Wako (Wako Pure Chemicals). Results: In each of the groups to which 0.5% MC solution, NVP DPP728, and the test compounds were administered, the area under the curve of blood glucose vs. time was calculated over 0 to 120 minutes from the time of glucose administration (AUC0-120). Defining the AUC0-120 for the 0.5% MC solution-administered group as 100%, and the AUC0-120 for the NVP DPP728 (10 mg/kg)-administered group as 0%, the degree of improvement in glucose tolerance due to the test compound was calculated by the following equation: Degree of improvement in glucose tolerance (%)=(AUC0-120 of the test compound−AUC0-120 of the NVP DPP728 (10 mg/kg)-administered group)/(AUC0-120 of the 0.5% MC solution-administered group−AUC0-120 of the NVP DPP728 (10 mg/kg)-administered group)×100 The lower the % value, the better the degree of improvement in glucose tolerance.

Q: With `CC#CCn1c(=O)n(C)c2nc(OC)nc(N3CCNCC3)c21.O=C(O)C(F)(F)F` [Example 1, 7-(2-Butynyl)-2-methoxy-9-methyl-6-(piperazin-1-yl)-7,9-dihydropurin-8-one trifluoroacetic acid salt] as the molecule, how does the IC50 [1] read?
A: 240 nM

Q: What about the “Degree of improvement in glucose tolerance (%)” value (from here on “Degree of improvement … (%)”) [2] of the same molecule?
A: 19.8%

Q: `CC#CCn1c(=O)n(C)c2nc(OC(C)C)nc(N3CCNCC3)c21.O=C(O)C(F)(F)F` [Example 7, 7-(2-Butynyl)-2-isopropoxy-9-methyl-6-(piperazin-1-yl)-7,9-dihydropurin-8-one trifluoroacetic acid salt] was tested. Which IC50 [1] did it give?
A: 199 nM

Q: What about the “Degree of improvement … (%)” value [2] of the same molecule?
A: 19.8%

Q: With `CC#CCn1c(=O)n(C)c2nc(OCC)nc(N3CCNCC3)c21.O=C(O)C(F)(F)F` [Example 10, 7-(2-Butynyl)-2-ethoxy-9-methyl-6-(piperazin-1-yl)-7,9-dihydropurin-8-one trifluoroacetic acid salt] as the molecule, how does the IC50 [1] read?
A: 251 nM

Q: What about the “Degree of improvement … (%)” value [2] of the same molecule?
A: 17.3%

Q: Which IC50 [1] does the source give for `CC#CCn1c(=O)n(C)c2nc(Oc3ccccc3C#N)nc(N3CCNCC3)c21.O=C(O)C(F)(F)F` [Example 13, 2-[7-(2-Butynyl)-9-methyl-8-oxo-6-(piperazin-1-yl)-8,9-dihydro-7H-purin-2-yloxy]benzonitrile trifluoroacetic acid salt] here?
A: 24.7 nM

Q: What about the “Degree of improvement … (%)” value [2] of the same molecule?
A: 33.5%

Q: What does the source list for `C=CCOc1nc(N2CCNCC2)c2c(n1)n(C)c(=O)n2CC#CC.O=C(O)C(F)(F)F` [Example 15, 2-Allyloxy-7-(2-butynyl)-9-methyl-6-(piperazin-1-yl)-7,9-dihydropurin-8-one trifluoroacetic acid salt]?
A: IC50 [1]: 319 nM; Degree of improvement in glucose tolerance (%) [2]: 46%

Q: `CC#CCn1c(=O)n(-c2cccnc2)c2nc(Cl)nc(N3CCNCC3)c21.O=C(O)C(F)(F)F` [Example 46, 7-(2-Butynyl)-2-chloro-6-(piperazin-1-yl)-9-(pyridin-3-yl)-7,9-dihydropurin-8-one trifluoroacetic acid salt] was tested. Which IC50 [1] did it give?
A: 42.6 nM

Q: What about the “Degree of improvement … (%)” value [2] of the same molecule?
A: 37%

Q: Which results are given for `C=CCn1c(=O)n(CC#CC)c2c(N3CCNCC3)nc(OC)nc21.O=C(O)C(F)(F)F` [Example 47, 9-Allyl-7-(2-butynyl)-2-methoxy-6-(piperazin-1-yl)-7,9-dihydropurin-8-one trifluoroacetic acid salt]?
A: IC50 [1]: 167 nM; Degree of improvement in glucose tolerance (%) [2]: 11.6%

Q: `CC#CCn1c(=O)n(CC#CC)c2c(N3CCNCC3)nc(OC)nc21.O=C(O)C(F)(F)F` [Example 48, 7,9-Di-(2-butynyl)-2-methoxy-6-(piperazin-1-yl)-7,9-dihydropurin-8-one trifluoroacetic acid salt] was tested. Which IC50 [1] did it give?
A: 71.6 nM

Q: And the “Degree of improvement … (%)” value [2]?
A: 37.4%

Q: Which results are given for `CC#CCn1c(=O)n(CC2CC2)c2nc(OC)nc(N3CCNCC3)c21.O=C(O)C(F)(F)F` [Example 51, 7-(2-Butynyl)-9-cyclopropylmethyl-2-methoxy-6-(piperazin-1-yl)-7,9-dihydropurin-8-one trifluoroacetic acid salt]?
A: IC50 [1]: 130 nM; Degree of improvement in glucose tolerance (%) [2]: 59.3%

Q: Which results are given for `CC#CCn1c(=O)n(CCC)c2nc(OC)nc(N3CCNCC3)c21.O=C(O)C(F)(F)F` [Example 52, 7-(2-Butynyl)-2-methoxy-6-(piperazin-1-yl)-9-propyl-7,9-dihydropurin-8-one trifluoroacetic acid salt]?
A: IC50 [1]: 175 nM; Degree of improvement in glucose tolerance (%) [2]: 29.7%

Q: For `CC#CCn1c(=O)n(-c2ccccc2)c2nc(OC)nc(N3CCNCC3)c21.O=C(O)C(F)(F)F` [Example 54, 7-(2-Butynyl)-2-methoxy-9-phenyl-6-(piperazin-1-yl)-7,9-dihydropurin-8-one trifluoroacetic acid salt], which IC50 [1] is on record?
A: 88.8 nM

Q: And the “Degree of improvement … (%)” value [2]?
A: 24.4%

Q: For `CC#CCn1c(=O)n(-c2ccoc2)c2nc(OC)nc(N3CCNCC3)c21.O=C(O)C(F)(F)F` [Example 56, 7-(2-Butynyl)-9-(furan-3-yl)-2-methoxy-6-(piperazin-1-yl)-7,9-dihydropurin-8-one trifluoroacetic acid salt], which IC50 [1] is on record?
A: 96.4 nM

Q: And the “Degree of improvement … (%)” value [2]?
A: 11.3%

Q: What does the source list for `CC#CCn1c(=O)n(-c2cccnc2)c2ncnc(N3CCNCC3)c21.O=C(O)C(F)(F)F` [Example 61, 7-(2-Butynyl)-6-(piperazin-1-yl)-9-(pyridin-3-yl)-7,9-dihydropurin-8-one trifluoroacetic acid salt]?
A: IC50 [1]: 61.9 nM; Degree of improvement in glucose tolerance (%) [2]: 9.4%

Q: `CC#CCn1c(=O)n(-c2cnc(OC)nc2)c2ncnc(N3CCNCC3)c21.O=C(O)C(F)(F)F` [Example 64, 7-(2-Butynyl)-9-(2-methoxy-pyrimidin-5-yl)-6-(piperazin-1-yl)-7,9-dihydropurin-8-one trifluoroacetic acid salt] was tested. Which IC50 [1] did it give?
A: 32.5 nM

Q: What about the “Degree of improvement … (%)” value [2] of the same molecule?
A: −11.4%

Q: What does the source list for `CC#CCn1c(=O)n(-c2ccnc(Cl)c2)c2ncnc(N3CCNCC3)c21.O=C(O)C(F)(F)F` [Example 65, 7-(2-Butynyl)-9-(2-chloro-pyridin-4-yl)-6-(piperazin-1-yl)-7,9-dihydropurin-8-one trifluoroacetic acid salt]?
A: IC50 [1]: 16.7 nM; Degree of improvement in glucose tolerance (%) [2]: 9.5%

Q: With `C=CCn1c(=O)n(CC#CC)c2c(N3CCNCC3)ncnc21.O=C(O)C(F)(F)F` [Example 69, 9-Allyl-7-(2-butynyl)-6-(piperazin-1-yl)-7,9-dihydropurin-8-one trifluoroacetic acid salt] as the molecule, how does the IC50 [1] read?
A: 224 nM

Q: And the “Degree of improvement … (%)” value [2]?
A: 44.1%

Q: For `CC#CCn1c(=O)[nH]c2ncnc(N3CCNCC3)c21` [Example 75, 7-(2-Butynyl)-6-(piperazin-1-yl)-7,9-dihydropurin-8-one trifluoroacetic acid salt], which IC50 [1] is on record?
A: 921 nM

Q: With `CC#CCn1c(=O)n(C)c2ncnc(N3CCNCC3)c21` [Example 76, 7-(2-Butynyl)-9-methyl-6-(piperazin-1-yl)-7,9-dihydropurin-8-one trifluoroacetic acid] as the molecule, how does the IC50 [1] read?
A: 1060 nM

Q: With `CC(C)=CCn1c(=O)n(C)c2ncnc(N3CCNCC3)c21` [Example 77, 9-Methyl-7-(3-methyl-2-butenyl)-6-(piperazin-1-yl)-7,9-dihydropurin-8-one trifluoroacetic acid salt] as the molecule, how does the IC50 [1] read?
A: 8130 nM

Q: Which IC50 [1] does the source give for `Cn1c(=O)n(Cc2ccccc2)c2c(N3CCNCC3)ncnc21` [Example 78, 7-Benzyl-9-methyl-6-(piperazin-1-yl)-7,9-dihydropurin-8-one trifluoroacetic acid salt] here?
A: 3800 nM

Q: For `CC#CCn1c(=O)n(Cc2ccccc2C#N)c2ncnc(N3CCNCC3)c21` [Example 79, 2-[7-(2-Butynyl)-8-oxo-6-piperazin-1-yl-7,8-dihydropurin-9-ylmethyl]benzonitrile trifluoroacetic acid salt], which IC50 [1] is on record?
A: 4.2 nM

Q: Which IC50 [1] does the source give for `N#Cc1ccccc1Cn1c(=O)n(Cc2ccccc2)c2c(N3CCNCC3)nccc21` [Example 80, 2-(3-Benzyl-2-oxo-4-piperazin-1-yl-2,3-dihydroimidazo[4.5-c]pyridin-1-ylmethyl)benzonitrile] here?
A: 3010 nM

Q: How did the IC50 [1] turn out when `N#Cc1ccccc1Cn1c(=O)n(Cc2ccccc2)c2c(N3CCNCC3)ncc(Oc3ccccc3C(N)=O)c21` [Example 81, 2-[3-Benzyl-1-(2-cyanobenzyl)-2-oxo-4-piperazin-1-yl-2,3-dihydro-1H-imidazo[4.5-c]pyridin-7-yloxy]-benzamide trifluoroacetic acid salt] was run?
A: 409 nM

Q: How did the IC50 [1] turn out when `CC#CCn1c(=O)n(C)c2ccnc(N3CCNCC3)c21` [Example 82, 3-(2-Butynyl)-1-methyl-4-piperazin-1-yl-1,3-dihydroimidazo[4.5-c]pyridin-2-one] was run?
A: 5230 nM

Q: For `CC#CCn1c(=O)n(C)c2c(Oc3ccccc3C(N)=O)cnc(N3CCNCC3)c21` [Example 83, 2-[3-(2-Butynyl)-1-methyl-2-oxo-4-piperazin-1-yl-2,3-dihydro-1H-imidazo[4.5-c]pyridin-7-yloxy]-benzamide trifluoroacetic acid salt], which IC50 [1] is on record?
A: 1130 nM

Q: For `CC#CCn1c(=S)n(C)c2ncnc(N3CCNCC3)c21` [Example 84, 7-(2-Butynyl)-9-methyl-6-(piperazin-1-yl)-7,9-dihydropurin-8-thione trifluoroacetic acid salt], which IC50 [1] is on record?
A: 13600 nM
